According to patent publication US9963445B2, “Chemical compounds” (SYNGENTA PARTICIPATIONS AG, priority 2013, dated 2018):

Key:
Type in all cases: in vivo
Abutilon theophrasti [1] = test: Pre-emergence herbicidal activity, glasshouse pot test; details: pre-emergence spray, rate 1000 g/ha, evaluated after 13 days, scale 0-5
Outline: (§1)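 Seeds sown in standard soil were sprayed one day after sowing, before emergence, with compound formulated in acetone/water (50:50) plus 0.5% Tween 20. Plants were grown at 24/16 °C day/night, 14 h light, 65% humidity, watered twice daily, and damage was scored after 13 days (0 = none, 5 = total).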

Alopecurus myosuroides [2] = test: as above; details: pre-emergence spray, rate 1000 g/ha, evaluated after 13 days, scale 0-5
Outline: as §1

Setaria faberi [3] = test: as above; details: pre-emergence spray, rate 1000 g/ha, evaluated after 13 days, scale 0-5
Outline: as §1

Amaranthus retroflexus [4] = test: as above; details: pre-emergence spray, rate 1000 g/ha, evaluated after 13 days, scale 0-5
Outline: as §1

Echinochloa crus-galli [5] = test: as above; details: pre-emergence spray, rate 1000 g/ha, evaluated after 13 days, scale 0-5
Outline: as §1

zea mays [6] = test: as above; details: pre-emergence spray, rate 1000 g/ha, evaluated after 13 days, scale 0-5
Outline: as §1

Abutilon theophrasti [7] = test: Post-emergence herbicidal activity, glasshouse pot test; parameters: key: 0 = no damage to plant, 5 = total damage to plant; details: Application post-emergence, rate 1000 g/ha, evaluated after 13 days
Outline: (§2)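 Test solution: technical active ingredient in acetone/water (50:50) containing 0.5% Tween 20, applied as an aqueous spray to 8-day-old plants. Evaluation at 13 days, 0–5 damage scale.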

Alopecurus myosuroides [8] = test: as above; parameters: key: 0 = no damage to plant, 5 = total damage to plant; details: Application post-emergence, rate 1000 g/ha, evaluated after 13 days
Outline: as §2

Setaria faberi [9] = test: as above; parameters: key: 0 = no damage to plant, 5 = total damage to plant; details: Application post-emergence, rate 1000 g/ha, evaluated after 13 days
Outline: as §2

Amaranthus retroflexus [10] = test: as above; parameters: key: 0 = no damage to plant, 5 = total damage to plant; details: Application post-emergence, rate 1000 g/ha, evaluated after 13 days
Outline: as §2

Echinochloa crus-galli [11] = test: as above; parameters: key: 0 = no damage to plant, 5 = total damage to plant; details: Application post-emergence, rate 1000 g/ha, evaluated after 13 days
Outline: as §2

zea mays [12] = test: as above; parameters: key: 0 = no damage to plant, 5 = total damage to plant; details: Application post-emergence, rate 1000 g/ha, evaluated after 13 days
Outline: as §2

| SMILES | ABUTH damage score, application pre-emergence (Abutilon theophrasti [1]) | ALOMY damage score, application pre-emergence (Alopecurus myosuroides [2]) | SETFA damage score, application pre-emergence (Setaria faberi [3]) | AMARE damage score, application pre-emergence (Amaranthus retroflexus [4]) | ECHCG damage score, application pre-emergence (Echinochloa crus-galli [5]) | ZEAMX damage score, application pre-emergence (zea mays [6]) | ABUTH herbicidal damage score (Abutilon theophrasti [7]) | ALOMY herbicidal damage score (Alopecurus myosuroides [8]) | SETFA herbicidal damage score (Setaria faberi [9]) | AMARE herbicidal damage score (Amaranthus retroflexus [10]) | ECHCG herbicidal damage score (Echinochloa crus-galli [11]) | ZEAMX herbicidal damage score (zea mays [12]) |
| --- | --- | --- | --- | --- | --- | --- | --- | --- | --- | --- | --- | --- |
| CC1=C(Cl)C(=O)N(c2ccc(C#N)cn2)C1O (stereo not drawn) [AF60] | 0 | 0 | 0 | 0 | 0 | 0 | 0 | 1 | 1 | 0 | 1 | 0 |
| COC1=C(C)C(O)N(c2ccc(C(=O)NC(C)(C)C)cn2)C1=O (stereo not drawn) [AI24] | 4 | 3 | 4 | 5 | 4 | 1 | 4 | 4 | 5 | 5 | 5 | 4 |
| CCOC(=O)C(C)(C)c1cc(N2C(=O)C(Cl)=C(C)C2O)ncn1 (stereo not drawn) [CF11] | 5 | 2 | 4 | 4 | 5 | 2 | 5 | 5 | 5 | 2 | 5 | 3 |
| CC1=C(Cl)C(=O)N(c2cc(C(F)(F)F)c(C(=O)NC(C)(C)C)cn2)C1O (stereo not drawn) [AF88] | 5 | 4 | 5 | 5 | 5 | 4 | 5 | 5 | 5 | 5 | 5 | 5 |
| CC1=C(Cl)C(=O)N(c2cc(C(C)C)c(C(=O)OC(C)C)cn2)C1O (stereo not drawn) [AF23] | 1 | 4 | 2 | 5 | 5 | 1 | 4 | 4 | 4 | 5 | 5 | 3 |
| COC1=C(C)C(O)N(c2cc(C)c(C(=O)NC3(C#N)CC3)cn2)C1=O (stereo not drawn) [AI34] | 1 | 3 | 3 | 4 | 4 | 0 | 5 | 4 | 5 | 5 | 4 | 3 |
| COC1=C(C)C(O)N(c2cc(C(C)(C)F)c(C#N)nn2)C1=O (stereo not drawn) [BI15] | 5 | 4 | 5 | 5 | 5 | 2 | 5 | 4 | 5 | 5 | 5 | 2 |
